Data as given in patent US20200187502A1, “MICROBIOCIDAL OXADIAZOLE DERIVATIVES” (SYNGENTA PARTICIPATIONS AG, priority 2017, published 2020).

Tests used:
[1] = system: Puccinia recondita f. Sp. Tritici; test: Fungicidal activity, wheat leaf disc preventative (brown rust); assay type: in vivo; conditions: foliar, 200 ppm in the applied formulation, wheat leaf segments cv. Kanzler, compared to untreated control, 7 to 9 days after application, read-out: disease control
Description: Leaf disks or leaf segments of various plant species are cut from plants grown in a greenhouse. The cut leaf disks or segments are placed in multiwell plates (24-well format) onto water agar. The leaf disks are sprayed with a test solution before (preventative) or after (curative) inoculation. Compounds to be tested are prepared as DMSO solutions (max. 10 mg/ml) which are diluted to the appropriate concentration with 0.025% Tween20 just before spraying. The inoculated leaf disks or segments are incubated under defined conditions (temperature, relative humidity, light, etc.) according to the respective test system. A single evaluation of disease level is carried out 3 to 14 days after inoculation, depending on the pathosystem. Percent disease control relative to the untreated check leaf disks or segments is then calculated.
Wheat leaf segments cv. Kanzler were placed on agar in multiwell plates (24-well format) and sprayed with the formulated test compound diluted in water. The leaf disks were inoculated with a spore suspension of the fungus 1 day after application. The inoculated leaf segments were incubated at 19° C. and 75% relative humidity (rh) under a light regime of 12 hours light/12 hours darkness in a climate cabinet and the activity of a compound was assessed as percent disease control compared to untreated when an appropriate level of disease damage appears in untreated check leaf segments (7 to 9 days after application).
The following compounds at 200 ppm in the applied formulation give at least 80% disease control in this test when compared to untreated control leaf disks under the same conditions, which show extensive disease development.

[2] = system: Glomerella lacenarium (Colletotrichum lacenarium); test: Fungicidal activity, liquid culture, cucumber preventative (anthracnose); assay type: cell-based; conditions: 20 ppm in the applied formulation, liquid culture in PDB, inhibition of growth measured photometrically 3 to 4 days after application, compared to untreated control, read-out: disease control
Description: Mycelia fragments or conidia suspensions of a fungus prepared either freshly from liquid cultures of the fungus or from cryogenic storage, are directly mixed into nutrient broth. DMSO solutions of the test compound (max. 10 mg/ml) are diluted with 0.025% Tween20 by a factor of 50 and 10 μl of this solution is pipetted into a microtiter plate (96-well format). The nutrient broth containing the fungal spores/mycelia fragments is then added to give an end concentration of the tested compound. The test plates are incubated in the dark at 24° C. and 96% relative humidity. The inhibition of fungal growth is determined photometrically after 2 to 7 days, depending on the pathosystem, and percent antifungal activity relative to the untreated check is calculated.
Conidia of the fungus from cryogenic storage are directly mixed into nutrient broth (PDB—potato dextrose broth). After placing a (DMSO) solution of test compound into a microtiter plate (96-well format), the nutrient broth containing the fungal spores is added. The test plates are incubated at 24° C. and the inhibition of growth is measured photometrically 3 to 4 days after application.
The following compounds at 20 ppm in the applied formulation give at least 80% disease control in this test when compared to untreated control under the same conditions, which show extensive disease development.

Structure (SMILES)	pest or weed control at 200 ppm [1] [%]	inhibition of growth at 20 ppm [2] [%]
CON(Cc1ccc(-c2noc(C(F)(F)F)n2)s1)S(=O)(=O)c1ccn(C)n1 [Compound 1.33, N-methoxy-1-methyl-N-[[5-[5-(trifluoromethyl)-1,2,4-oxadiazol-3-yl]-2-thienyl]methyl]pyrazole-3-sulfonamide]	≥ 80	≥ 80
CON(Cc1ccc(-c2noc(C(F)(F)F)n2)s1)S(=O)(=O)C1CC1 [Compound 1.37, N-methoxy-N-[[5-[5-(trifluoromethyl)-1,2,4-oxadiazol-3-yl]-2-thienyl]methyl]cyclopropanesulfonamide]	≥ 80	≥ 80
CON(Cc1ccc(-c2noc(C(F)(F)F)n2)s1)S(=O)(=O)N(C)C [Compound 1.43, N-(dimethylsulfamoyl)-N-methoxy-1-[5-[5-(trifluoromethyl)-1,2,4-oxadiazol-3-yl]-2-thienyl]methanamine]	≥ 80	≥ 80
COCC(=O)N(C)Cc1ccc(-c2noc(C(F)(F)F)n2)s1 [Compound 4.32, 2-methoxy-N-methyl-N-[[5-[5-(trifluoromethyl)-1,2,4-oxadiazol-3-yl]-2-thienyl]methyl]acetamide]	≥ 80	≥ 80
O=C(CC(F)(F)F)N(Cc1ccc(-c2noc(C(F)(F)F)n2)s1)C1CC1 [Compound 4.60, N-cyclopropyl-3,3,3-trifluoro-N-[[5-[5-(trifluoromethyl)-1,2,4-oxadiazol-3-yl]-2-thienyl]methyl]propanamide]	≥ 80	≥ 80
CC(=O)N(Cc1ccc(-c2noc(C(F)(F)F)n2)s1)C1CC1 [Compound 4.61, N-cyclopropyl-N-[[5-[5-(trifluoromethyl)-1,2,4-oxadiazol-3-yl]-2-thienyl]methyl]acetamide]	≥ 80	≥ 80
CC(=O)N(Cc1ccc(-c2noc(C(F)(F)F)n2)s1)OCC(F)F [Compound 4.69, N-(2,2-difluoroethoxy)-N-[[5-[5-(trifluoromethyl)-1,2,4-oxadiazol-3-yl]-2-thienyl]methyl]acetamide]	≥ 80	≥ 80
CN(Cc1ccc(-c2noc(C(F)(F)F)n2)s1)C(=O)c1ccccc1Cl [Compound 5.17, 2-chloro-N-methyl-N-[[5-[5-(trifluoromethyl)-1,2,4-oxadiazol-3-yl]-2-thienyl]methyl]benzamide]	≥ 80	≥ 80
CC(C)N(Cc1ccc(-c2noc(C(F)(F)F)n2)s1)C(=O)c1ccccc1Cl [Compound 5.26, 2-chloro-N-isopropyl-N-[[5-[5-(trifluoromethyl)-1,2,4-oxadiazol-3-yl]-2-thienyl]methyl]benzamide]	≥ 80	≥ 80
O=C(C1CCC1)N(Cc1ccc(-c2noc(C(F)(F)F)n2)s1)C1CC1 [Compound 5.38, N-cyclopropyl-N-[[5-[5-(trifluoromethyl)-1,2,4-oxadiazol-3-yl]-2-thienyl]methyl]cyclobutanecarboxamide]	≥ 80	≥ 80
O=C(CC1CC1)N(Cc1ccc(-c2noc(C(F)(F)F)n2)s1)OCC(F)F [Compound 5.45, 2-cyclopropyl-N-(2,2-difluoroethoxy)-N-[[5-[5-(trifluoromethyl)-1,2,4-oxadiazol-3-yl]-2-thienyl]methyl]acetamide]	≥ 80	≥ 80
O=C(C1CCOC1)N(Cc1ccc(-c2noc(C(F)(F)F)n2)s1)OCC(F)F (centres unmarked) [Compound 5.46, N-(2,2-difluoroethoxy)-N-[[5-[5-(trifluoromethyl)-1,2,4-oxadiazol-3-yl]-2-thienyl]methyl]tetrahydrofuran-3-carboxamide]	≥ 80	≥ 80
O=C(C1CCC1)N(Cc1ccc(-c2noc(C(F)(F)F)n2)s1)OCC(F)F [Compound 5.47, N-(2,2-difluoroethoxy)-N-[[5-[5-(trifluoromethyl)-1,2,4-oxadiazol-3-yl]-2-thienyl]methyl]cyclobutanecarboxamide]	≥ 80	≥ 80
O=C(C1CCCO1)N(Cc1ccc(-c2noc(C(F)(F)F)n2)s1)OCC(F)F (centres unmarked) [Compound 5.49, N-(2,2-difluoroethoxy)-N-[[5-[5-(trifluoromethyl)-1,2,4-oxadiazol-3-yl)-2-thienyl]methyl]tetrahydrofuran-2-carboxamide]	≥ 80	≥ 80
O=C(N(Cc1ccc(-c2noc(C(F)(F)F)n2)s1)C1CC1)N(CC(F)F)C1CC1 [Compound 5.60, 1,3-dicyclopropyl-1-(2,2-difluoroethyl)-3-[[5-[5-(trifluoromethyl)-1,2,4-oxadiazol-3-yl]-2-thienyl]methyl]urea]	≥ 80	≥ 80
CS(=O)(=O)N(Cc1ccc(-c2noc(C(F)(F)F)n2)s1)C1CC1 [Compound 6.1, N-cyclopropyl-N-[[5-[5-(trifluoromethyl)-1,2,4-oxadiazol-3-yl]-2-thienyl]methyl]methanesulfonamide]	≥ 80	≥ 80
CN(C)S(=O)(=O)N(Cc1ccc(-c2noc(C(F)(F)F)n2)s1)C1CC1 [Compound 6.2, N-(dimethylsulfamoyl)-N-[[5-[5-(trifluoromethyl)-1,2,4-oxadiazol-3-yl]-2-thienyl]methyl]cyclopropanamine]	≥ 80	≥ 80
CCN(Cc1ccc(-c2noc(C(F)(F)F)n2)s1)S(=O)(=O)Cc1ccccc1 [Compound 6.13, N-ethyl-1-phenyl-N-[[5-[5-(trifluoromethyl)-1,2,4-oxadiazol-3-yl]-2-thienyl]methyl]methanesulfonamide]	≥ 80	≥ 80
CCN(Cc1ccc(-c2noc(C(F)(F)F)n2)s1)S(=O)(=O)C1CC1 [Compound 6.19, N-ethyl-N-[[5-[5-(trifluoromethyl)-1,2,4-oxadiazol-3-yl]-2-thienyl]methyl]cyclopropanesulfonamide]	≥ 80	≥ 80
CCS(=O)(=O)N(C)Cc1ccc(-c2noc(C(F)(F)F)n2)s1 [Compound 6.25, N-methyl-N-[[5-[5-(trifluoromethyl)-1,2,4-oxadiazol-3-yl]-2-thienyl]methyl]ethanesulfonamide]	≥ 80	≥ 80
CN(C)S(=O)(=O)N(C)Cc1ccc(-c2noc(C(F)(F)F)n2)s1 [Compound 6.29, N-(dimethylsulfamoyl)-N-methyl-1-[5-[5-(trifluoromethyl)-1,2,4-oxadiazol-3-yl]-2-thienyl]methanamine]	≥ 80	≥ 80
CN(Cc1ccc(-c2noc(C(F)(F)F)n2)s1)S(=O)(=O)C1CC1 [Compound 6.30, N-methyl-N-[[5-[5-(trifluoromethyl)-1,2,4-oxadiazol-3-yl]-2-thienyl]methyl]cyclopropanesulfonamide]	≥ 80	≥ 80
CCCS(=O)(=O)N(C)Cc1ccc(-c2noc(C(F)(F)F)n2)s1 [Compound 6.31, N-methyl-N-[[5-[5-(trifluoromethyl)-1,2,4-oxadiazol-3-yl]-2-thienyl]methyl]propane-1-sulfonamide]	≥ 80	≥ 80
COCCS(=O)(=O)N(Cc1ccc(-c2noc(C(F)(F)F)n2)s1)C1CC1 [Compound 6.32, N-cyclopropyl-2-methoxy-N-[[5-[5-(trifluoromethyl)-1,2,4-oxadiazol-3-yl]-2-thienyl]methyl]ethanesulfonamide]	≥ 80	≥ 80
O=S(=O)(Cc1ccccc1)N(Cc1ccc(-c2noc(C(F)(F)F)n2)s1)C1CC1 [Compound 6.33, N-cyclopropyl-1-phenyl-N-[[5-[5-(trifluoromethyl)-1,2,4-oxadiazol-3-yl]-2-thienyl]methyl]methanesulfonamide]	≥ 80	≥ 80
